Columns and labels:
HDAC1 enzyme = molecular target: T1, HDAC1 enzyme (Homo sapiens, UniProt Q13547); assay: HDAC1 enzyme inhibitory assay (HDAC-Glo I/II Assay kit); assay type: biochemical; conditions: 1 μM test compound; for inhibition at 1 µM: read-out: HDAC1 inhibitory rate (%) (1 μM)
T1 construct: prepared by transducing full length HDAC1 and HDAC6 genes into Sf-9 insect cells; GST; purchased SignalChem; host or cells: Sf-9 insect cells
How it was run: (§1)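 Full-length GST-purified HDAC1 or HDAC6 (Sf-9 expressed) preincubated 60 min at room temperature with compound in Tris-HCl pH 7.5 buffer with glutathione and Tween-20. HDAC-Glo substrate-developer added, 20 min at room temperature, then luminescence read; inhibition relative to no-enzyme wells as 100%.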

HDAC6 enzyme = molecular target: T2, HDAC6 enzyme (Homo sapiens, UniProt Q9UBN7); assay: HDAC6 enzyme inhibitory assay (HDAC-Glo I/II Assay kit); assay type: biochemical; conditions: 1 μM test compound; for inhibition at 1 µM: read-out: HDAC6 inhibitory rate (%) (1 μM)
T2 construct: prepared by transducing full length HDAC1 and HDAC6 genes into Sf-9 insect cells; GST; purchased SignalChem; host or cells: Sf-9 insect cells
T2 sequence (Q9UBN7 1-1215): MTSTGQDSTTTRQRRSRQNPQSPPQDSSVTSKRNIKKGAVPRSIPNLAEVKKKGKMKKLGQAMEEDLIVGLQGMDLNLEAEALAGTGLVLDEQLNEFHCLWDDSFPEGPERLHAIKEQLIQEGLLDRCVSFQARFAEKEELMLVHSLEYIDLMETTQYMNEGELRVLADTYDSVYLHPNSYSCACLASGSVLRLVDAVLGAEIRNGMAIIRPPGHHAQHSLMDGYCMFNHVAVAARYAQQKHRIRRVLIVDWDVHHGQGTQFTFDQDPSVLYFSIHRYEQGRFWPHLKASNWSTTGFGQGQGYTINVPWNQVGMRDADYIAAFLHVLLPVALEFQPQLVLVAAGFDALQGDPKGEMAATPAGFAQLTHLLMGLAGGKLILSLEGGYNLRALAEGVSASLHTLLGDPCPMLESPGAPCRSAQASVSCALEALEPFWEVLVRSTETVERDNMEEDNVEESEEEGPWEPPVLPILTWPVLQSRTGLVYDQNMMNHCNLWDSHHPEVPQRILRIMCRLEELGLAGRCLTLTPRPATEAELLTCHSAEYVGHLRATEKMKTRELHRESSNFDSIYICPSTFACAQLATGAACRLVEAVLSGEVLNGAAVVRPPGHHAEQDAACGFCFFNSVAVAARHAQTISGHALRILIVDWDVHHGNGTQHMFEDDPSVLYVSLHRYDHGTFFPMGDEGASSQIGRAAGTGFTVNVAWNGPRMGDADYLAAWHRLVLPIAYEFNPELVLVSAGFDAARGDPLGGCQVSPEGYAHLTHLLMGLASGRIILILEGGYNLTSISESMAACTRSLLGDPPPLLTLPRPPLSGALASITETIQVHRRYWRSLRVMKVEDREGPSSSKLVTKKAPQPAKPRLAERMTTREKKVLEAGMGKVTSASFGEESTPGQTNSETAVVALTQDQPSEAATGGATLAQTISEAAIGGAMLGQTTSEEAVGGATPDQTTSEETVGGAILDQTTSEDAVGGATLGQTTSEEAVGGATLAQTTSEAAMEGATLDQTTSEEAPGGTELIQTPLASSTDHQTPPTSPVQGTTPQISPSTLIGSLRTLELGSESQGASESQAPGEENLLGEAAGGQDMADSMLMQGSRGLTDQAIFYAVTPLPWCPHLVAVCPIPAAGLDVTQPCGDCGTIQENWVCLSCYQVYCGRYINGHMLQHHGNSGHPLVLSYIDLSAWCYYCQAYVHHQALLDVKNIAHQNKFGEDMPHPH
How it was run: as §1

T1 sequence (Q13547 whole entry): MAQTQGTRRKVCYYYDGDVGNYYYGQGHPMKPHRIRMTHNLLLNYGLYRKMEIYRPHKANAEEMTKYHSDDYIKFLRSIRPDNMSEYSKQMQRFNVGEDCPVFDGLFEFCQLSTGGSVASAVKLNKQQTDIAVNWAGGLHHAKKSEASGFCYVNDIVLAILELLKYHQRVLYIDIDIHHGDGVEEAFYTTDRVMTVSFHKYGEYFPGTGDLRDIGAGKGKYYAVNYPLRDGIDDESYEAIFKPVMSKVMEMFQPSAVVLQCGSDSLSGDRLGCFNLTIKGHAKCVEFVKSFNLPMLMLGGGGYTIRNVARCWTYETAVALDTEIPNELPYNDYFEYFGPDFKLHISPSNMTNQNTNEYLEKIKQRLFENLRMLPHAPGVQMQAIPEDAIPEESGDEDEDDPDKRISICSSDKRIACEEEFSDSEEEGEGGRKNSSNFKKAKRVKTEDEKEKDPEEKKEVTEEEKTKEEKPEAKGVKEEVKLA

Row | Compound | inhibition at 1 µM (HDAC1 enzyme) [%] | inhibition at 1 µM (HDAC6 enzyme) [%] | HDAC1 inhibitory rate (%) (1 μM) (HDAC1 enzyme; 1 µM) | HDAC6 inhibitory rate (%) (1 μM) (HDAC6 enzyme; 1 µM)
1 | O=C(NC[C@H]1COCCN1C(=O)N1CCC(CO)CC1)c1ccc(-c2noc(C(F)(F)F)n2)cc1 [Example 278, N-(((3S)-4-((4-(hydroxymethyl)piperidin-1-yl)carbonyl)morpholin-3-yl)methyl)-4-(5-(trifluoromethyl)-1,2,4-oxadiazol-3-yl)benzamide] | 6 | 90 |  | 
2 | Cc1oncc1C(=O)N1CCOC[C@@H]1CNC(=O)c1ccc(-c2noc(C(F)(F)F)n2)cc1 [Example 59, N-(((3S)-4-((5-methyl-1,2-oxazol-4-yl)carbonyl)morpholin-3-yl)methyl)-4-(5-(trifluoromethyl)-1,2,4-oxadiazol-3-yl)benzamide] | 22 | 101 |  | 
3 | O=C(NCC1COCCN1C(=O)c1ccccc1)c1ccc(-c2noc(C(F)(F)F)n2)s1 (single isomer, unassigned) [Example 257, (R or S)-N-((4-benzoylmorpholin-3-yl)methyl)-5-(5-(trifluoromethyl)-1,2,4-oxadiazol-3-yl)thiophene-2-carboxamide] | 23 | 97 |  | 
4 | O=C(NC[C@H]1COCCN1C(=O)C(F)(F)c1ccccc1)c1ccc(-c2noc(C(F)(F)F)n2)cn1 [Example 207, N-(((3S)-4-(difluoro(phenyl)acetyl)morpholin-3-yl)methyl)-5-(5-(trifluoromethyl)-1,2,4-oxadiazol-3-yl)pyridine-2-carboxamide] | 41 | 99 |  | 
5 | O=C(NC[C@H]1COCCN1C(=O)N1CC[C@H](O)C1)c1ccc(-c2noc(C(F)(F)F)n2)cc1 [Example 274, N-(((3S)-4-(((3S)-3-hydroxypyrrolidin-1-yl)carbonyl)morpholin-3-yl)methyl)-4-(5-(trifluoromethyl)-1,2,4-oxadiazol-3-yl)benzamide] | 3 | 94 |  | 
6 | O=C(NC[C@@H]1COCCN1C(=O)C(F)(F)c1ccccc1)c1ccc(-c2noc(C(F)(F)F)n2)s1 [Example 265, N-(((3R)-4-(difluoro(phenyl)acetyl)morpholin-3-yl)methyl)-5-(5-(trifluoromethyl)-1,2,4-oxadiazol-3-yl)thiophene-2-carboxamide] | 76 | 99 |  | 
7 | O=C(NCC1COCCN1C(=O)c1ccc(Cl)cc1)c1ccc(-c2noc(C(F)(F)F)n2)cc1 (centres unmarked) [Example 8] | 33 | 97 |  | 
8 | O=C(NCC1COCCN1C(=O)c1ccccc1-c1ccccc1)c1ccc(-c2noc(C(F)(F)F)n2)cc1 (centres unmarked) [Example 32, N-((4-(biphenyl-2-ylcarbonyl)morpholin-3-yl)methyl)-4-(5-(trifluoromethyl)-1,2,4-oxadiazol-3-yl)benzamide] | 23 | 96 |  | 
9 | O=C(NC[C@H]1COCCN1C(=O)N1CCC(CO)C1)c1ccc(-c2noc(C(F)(F)F)n2)cc1 (stereo partly drawn) [Example 299, N-(((3S)-4-((3-(hydroxymethyl)pyrrolidin-1-yl)carbonyl)morpholin-3-yl)methyl)-4-(5-(trifluoromethyl)-1,2,4-oxadiazol-3-yl)benzamide] |  |  | 4 | 94
10 | O=C(NC[C@H]1COCCN1C(=O)N1CCCOCC1)c1ccc(-c2noc(C(F)(F)F)n2)cc1 [Example 290, N-(((3S)-4-(1,4-oxazepan-4-ylcarbonyl)morpholin-3-yl)methyl)-4-(5-(trifluoromethyl)-1,2,4-oxadiazol-3-yl)benzamide] | 3 | 97 |  | 
11 | O=C(NCC1Cc2ccccc2N1C(=O)c1ccccc1)c1ccc(-c2noc(C(F)(F)F)n2)cc1 (centres unmarked) [Example 167, N-((1-benzoyl-2,3-dihydro-1H-indol-2-yl)methyl)-4-(5-(trifluoromethyl)-1,2,4-oxadiazol-3-yl)benzamide] | 15 | 93 |  | 
12 | CN(C(=O)N1CCOCC1CNC(=O)c1ccc(-c2noc(C(F)(F)F)n2)cc1)c1ccccc1 (stereo in doubt) [Example 98, (3S)-N-methyl-N-phenyl-3-(((4-(5-(trifluoromethyl)-1,2,4-oxadiazol-3-yl)benzoyl)amino)methyl)morpholine-4-carboxamide] | 15 | 98 |  | 
13 | O=C(C[C@H]1COCCN1C(=O)c1ccccc1)Nc1ccc(-c2noc(C(F)(F)F)n2)cc1 [Example 160, 2-((3S)-4-benzoylmorpholin-3-yl)-N-(4-(5-(trifluoromethyl)-1,2,4-oxadiazol-3-yl)phenyl)acetamide] | 15 | 98 |  | 
14 | O=C(NC[C@H]1COCCN1C(=O)c1csnn1)c1ccc(-c2noc(C(F)(F)F)n2)cc1 [Example 70, N-(((3S)-4-(1,2,3-thiadiazol-4-ylcarbonyl)morpholin-3-yl)methyl)-4-(5-(trifluoromethyl)-1,2,4-oxadiazol-3-yl)benzamide] | 5 | 95 |  | 
15 | Cn1nc2ccccc2c1C(=O)N1CCOC[C@@H]1CC(=O)Nc1ccc(-c2noc(C(F)(F)F)n2)cc1 [Example 90, 2-((3S)-4-((2-methyl-2H-indazol-3-yl)carbonyl)morpholin-3-yl)-N-(4-(5-(trifluoromethyl)-1,2,4-oxadiazol-3-yl)phenyl)acetamide] | 29 | 97 |  | 
16 | O=C(NC[C@@H]1COCCN1C(=O)C1CC1)c1ccc(-c2noc(C(F)(F)F)n2)cc1 [Example 147, N-(((3R)-4-(cyclopropylcarbonyl)morpholin-3-yl)methyl)-4-(5-(trifluoromethyl)-1,2,4-oxadiazol-3-yl)benzamide] | 7 | 94 |  | 
17 | O=C(NC[C@H]1COCCN1C(=O)N1CC2CCC(C1)O2)c1ccc(-c2noc(C(F)(F)F)n2)cc1 [Example 110, N-(((3S)-4-(8-oxa-3-azabicyclo[3.2.1]oct-3-ylcarbonyl)morpholin-3-yl)methyl)-4-(5-(trifluoromethyl)-1,2,4-oxadiazol-3-yl)benzamide] | 10 | 96 |  | 
18 | N#Cc1cccc(C(=O)N2CCOCC2CNC(=O)c2ccc(-c3noc(C(F)(F)F)n3)cc2)c1 (centres unmarked) [Example 28, N-((4-(3-cyanobenzoyl)morpholin-3-yl)methyl)-4-(5-(trifluoromethyl)-1,2,4-oxadiazol-3-yl)benzamide] | 14 | 98 |  | 
19 | O=C(NCC1COCCN1C(=O)c1ccccc1)c1ccc(-c2noc(C(F)(F)F)n2)cc1F (centres unmarked) [Example 177, N-((4-benzoylmorpholin-3-yl)methyl)-2-fluoro-4-(5-(trifluoromethyl)-1,2,4-oxadiazol-3-yl)benzamide] | 27 | 99 |  | 
20 | O=C(NC[C@H]1COCCN1C(=O)N1CCC[C@@H]1C(F)(F)F)c1ccc(-c2noc(C(F)(F)F)n2)cc1 [Example 286, 4-(5-(trifluoromethyl)-1,2,4-oxadiazol-3-yl)-N-(((3S)-4-(((2R)-2-(trifluoromethyl)pyrrolidin-1-yl)carbonyl)morpholin-3-yl)methyl)benzamide] | 2 | 95 |  | 
21 | O=C(NCC1COCCN1C(=O)c1ccccc1Cl)c1ccc(-c2noc(C(F)(F)F)n2)cc1 (centres unmarked) [Example 6, N-((4-(2-chlorobenzoyl)morpholin-3-yl)methyl)-4-(5-(trifluoromethyl)-1,2,4-oxadiazol-3-yl)benzamide] | 22 | 111 |  | 
22 | O=C(NCC1COCCN1C(=O)c1cccc(-c2ccccc2)c1)c1ccc(-c2noc(C(F)(F)F)n2)s1 (centres unmarked) [Example 222, N-((4-(biphenyl-3-ylcarbonyl)morpholin-3-yl)methyl)-5-(5-(trifluoromethyl)-1,2,4-oxadiazol-3-yl)thiophene-2-carboxamide] | 7 | 89 |  | 
